Assay results from patent EP0897720A1, “Droloxifene for prevention of breast cancer” (Pfizer Products Inc., priority 1997, dated 1999).

Legend:
[1] = system: puberal, female sprague-Dawley rats; experiment: Anti-uterotrophic effect (modified Dorfman Test); type: in vivo; conditions: 3 mg./kg./day by stomach tube, six times weekly over 21 days, 0.25% aqueous agar suspension
Procedure: The anti-uterotrophic effect was determined according to a modified "Dorfman Test" [R. I. Dorfman, Methods in Hormone Research II, p. […]

[2] = system: 7,12-dimethylbenz(a)anthraceneinduced mammary tumor; experiment: Inhibitory effect on the mammary tumor (DMBA-induced tumor model); type: in vivo, female Sprague-Dawley rat (Hanover breed); conditions: 3 mg./kg./day by stomach tube, six times weekly over 28 days; control animals taken as 100%
Procedure: Twice weekly and on the 28th day of testing the number of animals was determined and the tumor surface (mm^2/animal) of the therapy animals and control animals was measured. At the end of testing, the percentage increase of the average tumor surface of the treated animals was determined in comparison to the control animals, the surface of the latter being taken as 100%.

[3] = system: epithelial cells of the uterus; conditions: stated as a known side-effect of earlier anti-estrogens; cited from earlier work

CC/C(=C(/c1ccc(OCCN(C)C)cc1)c1cccc(O)c1)c1ccccc1 [Compound 1, 1-[4'-(2-dimethylaminoethoxy)phenyl]-1-(3'-hydroxyphenyl)-2-phenylbut-1-ene]
Uterine Weight compared to Controlled Animals [1]: -42% | Relative Increase of the Average Tumor Surface [2]: 23%

CC/C(=C(/c1ccc(OCCN(CC)CC)cc1)c1cccc(O)c1)c1ccccc1 [Compound 2]
Uterine Weight compared to Controlled Animals [1]: -39%

CC/C(=C(/c1ccc(OCCNC)cc1)c1cccc(O)c1)c1ccccc1 [Compound 3]
Uterine Weight compared to Controlled Animals [1]: -53%

CC/C(=C(\c1ccccc1)c1ccc(OCCN(C)C)cc1)c1ccccc1 [Tamoxifen, reference compound]
Uterine Weight compared to Controlled Animals [1]: -40% | abnormal growth of uterine epithelial cells [3]: causes abnormal growth of uterine epithelial cells
